From US8895544B2, “Indazoles” (Pfizer Limited, priority 2011, dated 2014)
pIC50: −log10 of the molar value. Counter-ions that a name gives are not always drawn.

Columns and labels:
JAK3 enzyme = JAK3 enzyme (Homo sapiens (Human), UniProt P52333); assay: JAK3 isolated enzyme high ATP Caliper endpoint assay; format: biochemical; details: 400 μM ATP, read-out: JAK-3 IC50
Description: JAK3 Isolated Enzyme High ATP Caliper Endpoint Assay
4 mM stock solutions of test compounds are prepared and serially diluted in 100% DMSO. […] Greiner 384 well plates are prepared containing 400 nl of serially diluted compound, standard and HPE/ZPE. Final top assay concentration is 80 μM as the assay dilution factor is fifty.
JAK3 enzyme stock is diluted to 2 nM in assay buffer (10 mM HEPES free acid pH 7.5, 10 mM HEPES free base pH 7.5, 10 mM MgCL2, 0.0005% Tween-20, 0.01% BSA) containing 2 mM DTT (all supplied by Sigma). ATP is made up at 10 mM stock in sterile water and diluted to 800 μM in assay buffer. Peptide (American peptide company) is made up at 30 mM in 100% DMSO and diluted to 3 μM in assay buffer.
Assays are performed in Greiner polypropylene 384 well plates. Following compound preparation within the plate 10 μl of enzyme in assay buffer containing DTT is added using a Multidrop Micro. Final assay concentration of enzyme is 1 nM. Compound and enzyme are pre-incubated for 60 minutes at room temperature using low evaporation lids before addition of 10 μl ATP/peptide mixture in assay buffer using a Multidrop Micro. […] Plates are foil sealed and incubated for a further 60 minutes at room temperature. Stop solution is added to the plates (20 μl/well) using a Multidrop Micro and plates are loaded onto the Caliper EZReader II. Data is generated by the shift in mobility of non-phosphorylated peptide substrates and phosphorylated products by electrophoresis within a chip and detected via LED induced fluorescence. Data is analysed using LabChip EZReader software which calculates the relative heights of the substrate and product peaks and reports product/product plus substrate peak ratio. Test compound data are subsequently expressed as percentage inhibition defined by HPE and ZPE values for each plate. Percentage inhibition in the presence of test compound is plotted against compound concentration on a log scale to determine an IC50 from the resultant sigmoid curve.

JAK1 enzyme = JAK1 enzyme (Homo sapiens (Human), UniProt P23458); assay: JAK1 isolated enzyme high ATP Caliper endpoint assay; format: biochemical; details: 2.5 mM ATP, read-out: JAK-1 IC50;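 further: enzyme at 10 nM preincubated with inhibitor 30 min, then kinase reaction 120 min at room temperature, peptide phosphorylation read by microfluidic mobility shift with fluorescence, inhibition relative to HPE and ZPE plate controls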
Sequence of JAK1 enzyme (P23458 whole entry): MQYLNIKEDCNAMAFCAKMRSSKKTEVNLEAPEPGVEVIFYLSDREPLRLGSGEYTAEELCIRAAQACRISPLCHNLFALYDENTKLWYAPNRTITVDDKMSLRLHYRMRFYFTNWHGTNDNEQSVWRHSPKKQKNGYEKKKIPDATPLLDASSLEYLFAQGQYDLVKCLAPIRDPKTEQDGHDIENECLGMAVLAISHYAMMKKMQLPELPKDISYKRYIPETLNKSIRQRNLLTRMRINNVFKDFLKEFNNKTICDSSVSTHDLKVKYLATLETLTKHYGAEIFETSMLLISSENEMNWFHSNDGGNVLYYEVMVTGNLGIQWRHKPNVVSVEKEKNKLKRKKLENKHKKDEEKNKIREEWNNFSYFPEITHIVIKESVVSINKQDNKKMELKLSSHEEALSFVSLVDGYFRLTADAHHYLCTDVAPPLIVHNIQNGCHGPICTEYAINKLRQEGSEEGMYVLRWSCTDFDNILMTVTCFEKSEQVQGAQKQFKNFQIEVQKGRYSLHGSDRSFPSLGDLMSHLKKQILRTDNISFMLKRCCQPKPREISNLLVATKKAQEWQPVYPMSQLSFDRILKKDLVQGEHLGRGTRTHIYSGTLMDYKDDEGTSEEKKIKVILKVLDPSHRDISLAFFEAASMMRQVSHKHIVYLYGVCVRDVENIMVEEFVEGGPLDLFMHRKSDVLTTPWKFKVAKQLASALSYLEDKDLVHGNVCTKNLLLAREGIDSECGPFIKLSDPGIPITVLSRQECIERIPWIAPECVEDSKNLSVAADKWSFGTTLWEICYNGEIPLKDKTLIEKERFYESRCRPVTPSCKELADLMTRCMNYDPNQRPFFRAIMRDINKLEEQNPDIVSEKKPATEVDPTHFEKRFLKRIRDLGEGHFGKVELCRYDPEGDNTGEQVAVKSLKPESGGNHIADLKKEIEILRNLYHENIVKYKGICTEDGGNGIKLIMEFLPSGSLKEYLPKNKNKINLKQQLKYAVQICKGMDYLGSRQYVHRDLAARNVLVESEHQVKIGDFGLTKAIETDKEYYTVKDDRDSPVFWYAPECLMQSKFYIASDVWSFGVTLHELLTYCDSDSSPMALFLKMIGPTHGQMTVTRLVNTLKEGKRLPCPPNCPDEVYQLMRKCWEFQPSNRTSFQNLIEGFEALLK
Description: JAK1 Isolated Enzyme High ATP Caliper Endpoint Assay
4 mM stock solutions of test compounds are prepared and serially diluted in 100% DMSO. A standard curve using PF-00956980 (commercially available from Sigma Aldrich) at a top concentration of 4 mM is also prepared. High percentage effect (HPE) is defined by 500 μM PF-00956980 and 0% effect (ZPE) is defined by 100% DMSO. Greiner 384 well plates are prepared containing 400 nl of serially diluted compound, standard and HPE/ZPE. Final top assay concentration is 80 μM as the assay dilution factor is fifty.
JAK1 enzyme (Invitrogen) stock solution is made up at 5.2 μM in sterile water. JAK1 enzyme stock is diluted to 20 nM in assay buffer (10 mM HEPES free acid pH 7.5, 10 mM HEPES free base pH 7.5, 10 mM MgCL2, 0.0005% Tween-20, 0.01% BSA) containing 2 mM DTT (all supplied by Sigma) with the addition of one protease tablet per 25 mls buffer (Roche). ATP is made up at 10 mM stock in sterile water and diluted to 5 mM in assay buffer. Peptide H236 (Caliper Life Sciences) is made up at 1.5 mM in 100% DMSO and diluted to 3 μM in assay buffer. Stop buffer comprises 140 mM HEPES, 22.5 mM EDTA (Sigma) and 0.15% coating reagent (Caliper Life Sciences).
Assays are performed in Greiner polypropylene 384 well plates. Following compound preparation within the plate 10 μl of enzyme in assay buffer containing DTT is added using a Multidrop Micro. Final assay concentration of enzyme is 10 nM. Compound and enzyme are pre-incubated for 30 minutes at room temperature using low evaporation lids before addition of 10 μl ATP/peptide mixture in assay buffer using a Multidrop Micro. Final assay concentrations are 2.5 mM ATP and 1.5 μM peptide. Plates are foil sealed and incubated for a further 120 minutes at room temperature. Stop solution is added to the plates (20 μl/well) using a Multidrop Micro and plates are loaded onto the Caliper EZReader II. Data is generated by the shift in mobility of non-phosphorylated peptide substrates and phosphorylated products by electrophoresis within a chip and detected via LED induced fluorescence. Data is analysed using LabChip EZReader software which calculates the relative heights of the substrate and product peaks and reports product/product plus substrate peak ratio. Test compound data are subsequently expressed as percentage inhibition defined by HPE and ZPE values for each plate. Percentage inhibition in the presence of test compound is plotted against compound concentration on a log scale to determine an IC50 from the resultant sigmoid curve.

Sequence of JAK3 enzyme (P52333 whole entry): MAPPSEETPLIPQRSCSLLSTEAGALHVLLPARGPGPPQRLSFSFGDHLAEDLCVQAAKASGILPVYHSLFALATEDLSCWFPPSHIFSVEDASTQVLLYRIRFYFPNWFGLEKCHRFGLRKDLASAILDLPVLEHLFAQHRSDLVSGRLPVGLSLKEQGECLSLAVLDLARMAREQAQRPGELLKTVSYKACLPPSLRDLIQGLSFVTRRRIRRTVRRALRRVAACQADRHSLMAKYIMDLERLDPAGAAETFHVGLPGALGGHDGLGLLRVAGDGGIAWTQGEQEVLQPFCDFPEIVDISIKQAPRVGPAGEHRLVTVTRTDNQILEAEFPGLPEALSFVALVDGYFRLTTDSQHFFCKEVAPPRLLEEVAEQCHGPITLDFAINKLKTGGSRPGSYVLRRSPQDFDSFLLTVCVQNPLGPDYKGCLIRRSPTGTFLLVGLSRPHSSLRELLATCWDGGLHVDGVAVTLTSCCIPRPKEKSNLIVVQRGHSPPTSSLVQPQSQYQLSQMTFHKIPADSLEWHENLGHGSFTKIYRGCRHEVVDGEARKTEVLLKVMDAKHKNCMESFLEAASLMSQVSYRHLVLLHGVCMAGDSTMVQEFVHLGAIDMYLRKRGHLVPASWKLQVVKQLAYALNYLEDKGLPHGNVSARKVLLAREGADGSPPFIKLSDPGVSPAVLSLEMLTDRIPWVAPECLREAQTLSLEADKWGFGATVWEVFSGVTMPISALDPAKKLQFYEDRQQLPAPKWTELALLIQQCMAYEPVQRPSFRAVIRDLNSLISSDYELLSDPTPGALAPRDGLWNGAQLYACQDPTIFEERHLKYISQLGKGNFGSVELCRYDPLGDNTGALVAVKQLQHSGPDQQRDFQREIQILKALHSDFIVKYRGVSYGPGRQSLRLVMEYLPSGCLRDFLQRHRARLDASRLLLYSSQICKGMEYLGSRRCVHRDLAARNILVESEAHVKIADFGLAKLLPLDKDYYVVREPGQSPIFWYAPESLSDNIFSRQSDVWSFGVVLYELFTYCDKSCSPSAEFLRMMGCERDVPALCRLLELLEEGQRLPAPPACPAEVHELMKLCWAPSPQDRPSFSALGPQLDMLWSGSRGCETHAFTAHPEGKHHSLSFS

Row | Compound | pIC50 (JAK3 enzyme) | pIC50 (JAK1 enzyme)
1 | CCc1cc(O)c(F)cc1-c1ccc2c(-c3nc4c([nH]3)CCN(C(=O)c3ccc(F)cc3)C4)n[nH]c2c1 [Example 1, {2-[6-(2-Ethyl-5-fluoro-4-hydroxy-phenyl)-1H-indazol-3-yl]-1,4,6,7-tetrahydro-imidazo[4,5-c]pyridin-5-yl}-(4-fluoro-phenyl)-methanone] | > 9.22 | > 9.15
2 | CCc1cc(O)c(F)cc1-c1ccc2c(-c3nc4c([nH]3)CCN(C(=O)c3ccsn3)C4)n[nH]c2c1 [Example 2, {2-[6-(2-Ethyl-5-fluoro-4-hydroxy-phenyl)-1H-indazol-3-yl]-1,4,6,7-tetrahydro-imidazo[4,5-c]pyridin-5-yl}-isothiazol-3-yl-methanone] | 9.30 | 7.34
3 | CCc1cc(O)c(F)cc1-c1ccc2c(-c3nc4c([nH]3)CCN(S(=O)(=O)c3ccc(N5CCOCC5)nc3)C4)n[nH]c2c1 [Example 6, 5-Ethyl-2-fluoro-4-{3-[5-(6-morpholin-4-yl-pyridine-3-sulfonyl)-4,5,6,7-tetrahydro-1H-imidazo[4,5-c]pyridin-2-yl]-1H-indazol-6-yl}-phenol] | 8.89 | 8.08
4 | CCc1cc(O)c(F)cc1-c1ccc2c(-c3nc4c([nH]3)CCN(S(=O)(=O)c3ccc(Oc5ccccc5)nc3)C4)n[nH]c2c1 [Example 7, 5-Ethyl-2-fluoro-4-{3-[5-(6-phenoxy-pyridine-3-sulfonyl)-4,5,6,7-tetrahydro-1H-imidazo[4,5-c]pyridin-2-yl]-1H-indazol-6-yl}-phenol] | 8.82 | 8.60
5 | CCc1cc(O)c(F)cc1-c1ccc2c(-c3nc4c([nH]3)CCN(C(=O)c3ccc(Cl)cn3)CC4)n[nH]c2c1 [Example 8, (5-Chloro-pyridin-2-yl)-{2-[6-(2-ethyl-5-fluoro-4-hydroxy-phenyl)-1H-indazol-3-yl]-4,5,7,8-tetrahydro-1H-imidazo[4,5-d]azebin-6-yl}-methanone] | 8.85 | 8.54
6 | CCc1cc(O)c(F)cc1-c1ccc2c(-c3nc4c([nH]3)CCN(C(=O)c3cc(C#N)ccn3)CC4)n[nH]c2c1 [Example 9, 2-{2-[6-(2-Ethyl-5-fluoro-4-hydroxy-phenyl)-1H-indazol-3-yl]-4,5,7,8-tetrahydro-1H-imidazo[4,5-d]azepine-6-carbonyl}-isonicotinonitrile] | 8.72 | 7.72
7 | CCc1cc(O)c(F)cc1-c1ccc2c(-c3nc4c([nH]3)CCN(C(=O)c3ccc(F)cc3)CC4)n[nH]c2c1 [Example 10, {2-[6-(2-Ethyl-5-fluoro-4-hydroxy-phenyl)-1H-indazol-3-yl]-4,5,7,8-tetrahydro-1H-imidazo[4,5-d]azepin-6-yl}-(4-fluoro-phenyl)-methanone] | 8.89 | 8.35
8 | CCc1cc(O)c(F)cc1-c1ccc2c(-c3nc4c([nH]3)CCN(C(=O)c3ccsn3)CC4)n[nH]c2c1 [Example 11, {2-[6-(2-Ethyl-5-fluoro-4-hydroxy-phenyl)-1H-indazol-3-yl]-4,5,7,8-tetrahydro-1H-imidazo[4,5-d]azepin-6-yl}-isothiazol-3-yl-methanone] | 9.00 | 8.60
9 | CCc1cc(O)c(F)cc1-c1ccc2c(-c3nc4c([nH]3)CCN(S(=O)(=O)c3ccc(F)cc3)C4)n[nH]c2c1 [Example 12, 5-Ethyl-2-fluoro-4-{3-[5-(4-fluoro-benzenesulfonyl)-4,5,6,7-tetrahydro-1H-imidazo[4,5-c]pyridin-2-yl]-1H-indazol-6-yl}-phenol] | 8.80 | 8.92
10 | CCc1cc(O)c(F)cc1-c1ccc2c(-c3nc4c([nH]3)CCN(C(=O)c3cnc(Oc5ccccc5F)cn3)C4)n[nH]c2c1 [Example 13, {2-[6-(2-Ethyl-5-fluoro-4-hydroxy-phenyl)-1H-indazol-3-yl]-1,4,6,7-tetrahydro-imidazo[4,5-c]pyridin-5-yl}-[5-(2-fluoro-phenoxy)-Dvrazin-2-yl]-methanone] | 8.44 | 8.82
11 | CCc1cc(O)c(F)cc1-c1ccc2c(-c3nc4c([nH]3)CCN(Cc3ccccc3)CC4)n[nH]c2c1 [Example 14, 4-[3-(6-Benzyl-1,4,5,6,7,8-hexahydro-imidazo[4,5-d]azepin-2-yl)-1H-indazol-6-yl]-5-ethyl-2-fluoro-phenol] | 8.85 | 9.10
12 | CCc1cc(O)c(F)cc1-c1ccc2c(-c3nc4c([nH]3)CCN(C(=O)c3ccc(Cl)cn3)C4)n[nH]c2c1 [Example 15, (5-Chloro-pyridin-2-yl)-{2-[6-(2-ethyl-5-fluoro-4-hydroxy-phenyl)-1H-indazol-3-yl]-1,4,6,7-tetrahydro-imidazo[4,5-d]pyridin-5-yl}-methanone] | 9.00 | 
13 | CCc1cc(O)c(F)cc1-c1ccc2c(-c3nc4c([nH]3)CCN(C(=O)c3ccc(C#N)nc3)C4)n[nH]c2c1 [Example 16, 5-{2-[6-(2-Ethyl-5-fluoro-4-hydroxy-phenyl)-1H-indazol-3-yl]-1,4,6,7-tetrahydro-imidazo[4,5-c]pyridine-5-carbonyl}-pyridine-2-carbonitrile] | 8.72 | 9.15
14 | CCc1cc(O)c(F)cc1-c1ccc2c(-c3nc4c([nH]3)CCN(Cc3ccc(O)cc3)C4)n[nH]c2c1 [Example 19, 5-Ethyl-2-fluoro-4-{3-[5-(4-hydroxy-benzyl)-4,5,6,7-tetrahydro-1H-imidazo[4,5-c]pyridin-2-yl]-1H-indazol-6-yl}-phenol] | 8.66 | 8.37
15 | CCc1cc(O)c(F)cc1-c1ccc2c(-c3nc4c([nH]3)CCN(Cc3cccc(O)c3)C4)n[nH]c2c1 [Example 20, 5-Ethyl-2-fluoro-4-{3-[5-(3-hydroxy-benzyl)-4,5,6,7-tetrahydro-1H-imidazo[4,5-c]pyridin-2-yl]-1H-indazol-6-yl}-phenol] | 8.25 | 8.59
16 | CCc1cc(O)c(F)cc1-c1ccc2c(-c3nc4c([nH]3)CCN(Cc3ccnc(C#N)c3)C4)n[nH]c2c1 [Example 21, 4-{2-[6-(2-Ethyl-5-fluoro-4-hydroxy-phenyl)-1H-indazol-3-yl]-1,4,6,7-tetrahydro-imidazo[4,5-c]pyridin-5-ylmethyl}-pyridine-2-carbonitrile] | 8.85 | 8.23
17 | CCc1cc(O)c(F)cc1-c1ccc2c(-c3nc4c([nH]3)CCN(Cc3cccc(OC)c3)C4)n[nH]c2c1 [Example 22, 5-Ethyl-2-fluoro-4-{3-[5-(3-methoxy-benzyl)-4,5,6,7-tetrahydro-1H-imidazo[4,5-c]pyridin-2-yl]-1H-indazol-6-yl}-phenol formic acid salt] | 8.59 | 8.52
18 | CCc1cc(O)c(F)cc1-c1ccc2c(-c3nc4c([nH]3)CCN(Cc3cnc5ccccc5c3)C4)n[nH]c2c1 [Example 23, 5-Ethyl-2-fluoro-4-[3-(5-quinolin-3-ylmethyl-4,5,6,7-tetrahydro-1H-imidazo[4,5-c]pyridin-2-yl)-1H-indazol-6-yl]-phenol] | 8.92 | 8.77
19 | CCc1cc(O)c(F)cc1-c1ccc2c(-c3nc4c([nH]3)CCN(Cc3ccc(Oc5ccccc5)nc3)C4)n[nH]c2c1 [Example 24, 5-Ethyl-2-fluoro-4-{3-[5-(6-phenoxy-pyridin-3-ylmethyl)-4,5,6,7-tetrahydro-1H-imidazo[4,5-c]pyridin-2-yl]-1H-indazol-6-yl}-phenol] | 8.62 | 8.21
20 | CCc1cc(O)c(F)cc1-c1ccc2c(-c3nc4c([nH]3)CCN(Cc3ccc(N5CCCCC5)nc3)C4)n[nH]c2c1 [Example 25, 5-Ethyl-2-fluoro-4-{3-[5-(3,4,5,6-tetrahydro-2H-[1,2′]bipyridinyl-5′-ylmethyl)-4,5,6,7-tetrahydro-1H-imidazo[4,5-c]pyridin-2-yl]-1H-indazol-6-yl}-phenol] |  | 8.40
21 | CCc1cc(O)c(F)cc1-c1ccc2c(-c3nc4c([nH]3)CCN(Cc3cccnc3C#N)C4)n[nH]c2c1 [Example 26, 3-{2-[6-(2-Ethyl-5-fluoro-4-hydroxy-phenyl)-1H-indazol-3-yl]-1,4,6,7-tetrahydro-imidazo[4,5-c]pyridin-5-ylmethyl}-pyridine-2-carbonitrile] | 8.39 | 8.40
22 | CCc1cc(O)c(F)cc1-c1ccc2c(-c3nc4c([nH]3)CCN(Cc3ccc5cccnc5n3)C4)n[nH]c2c1 [Example 28, 5-Ethyl-2-fluoro-4-[3-(5-[1,8]naphthyridin-2-ylmethyl-4,5,6,7-tetrahydro-1H-imidazo[4,5-c]pyridin-2-yl)-1H-indazol-6-yl]-phenol] | 7.96 | 7.86
23 | O=C(c1cnc(N2CCCCC2)cn1)N1CCc2[nH]c(-c3n[nH]c4cc(-c5cc(F)c(O)cc5CC(F)(F)F)ccc34)nc2C1 [Example 29, (2-{6-[5-Fluoro-4-hydroxy-2-(2,2,2-trifluoro-ethyl)-pheny]-1H-indazol-3-yl}-1,4,6,7-tetrahydro-imidazo[4,5-c]pyridin-5-yl)-(5-piperidin-1-yl-pyrazin-2-yl)-methanone diethylamine salt] | 7.38 | 8.96
24 | O=C(c1ccc(F)cc1)N1CCc2[nH]c(-c3n[nH]c4cc(-c5cc(F)c(O)cc5CC(F)(F)F)ccc34)nc2C1 [Example 30, (2-{6-[5-Fluoro-4-hydroxy-2-(2,2,2-trifluoro-ethyl)-phenyl]-1H-indazol-3-yl}-1,4,6,7-tetrahydro-imidazo[4,5-c]pyridin-5-yl)-(4-fluoro-phenyl)-methanone diethylamine salt] | 8.17 | 8.11
25 | Oc1cc(CC(F)(F)F)c(-c2ccc3c(-c4nc5c([nH]4)CCN(Cc4ccccc4)C5)n[nH]c3c2)cc1F [Example 31, 4-[3-(5-Benzyl-4,5,6,7-tetrahydro-1H-imidazo[4,5-c]pyridin-2-yl)-1H-indazol-6-yl]-2-fluoro-5-(2,2,2-trifluoro-ethyl)-phenol diethylamine salt] | 6.73 | 7.18
26 | {2-[6-(2-Ethyl-5-fluoro-4-hydroxy-phenyl)-1H-indazol-3-yl]-1,4,6,7-tetrahydro-imidazo[4,5-c]pyridin-5-yl}-isothiazol-3-yl-methanone [Example 3] |  | 8.43
